In patent US20260274799A1, “HETEROCYCLIC DERIVATIVES, COMPOSITIONS AND USES THEREOF” (DANATLAS PHARMACEUTICALS CO., LTD., priority 2023, published 2026):

Biological target: T1, PPARγ-LBD (UniProt ID: P37231-2) (Homo sapiens, UniProt P37231)
T1 construct: PPARγ-LBD (UniProt ID: P37231-2) was expressed and purified in insect system; made in house
T1 sequence (P37231 238-503 limits assumed): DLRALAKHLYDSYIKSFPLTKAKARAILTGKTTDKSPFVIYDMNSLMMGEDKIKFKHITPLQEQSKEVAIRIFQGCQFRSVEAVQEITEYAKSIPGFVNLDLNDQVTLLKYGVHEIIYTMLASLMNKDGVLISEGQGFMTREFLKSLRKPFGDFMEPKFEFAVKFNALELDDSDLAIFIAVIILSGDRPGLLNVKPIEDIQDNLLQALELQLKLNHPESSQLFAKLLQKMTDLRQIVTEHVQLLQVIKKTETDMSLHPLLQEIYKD
Experiment: PPARγ-SMRT recruitment assay (TR-FRET)
Assay type: biochemical
Settings: for EC50: TR-FRET, SMRT peptide recruitment to PPARγ-LBD, 120 min pre-incubation; for Emax: 1 h, max value of % Activation, high control 10 uM control compound, low control 1% DMSO, read-out: Top %
Experimental: PPARγ TR-FRET assay was initiated to evaluate potential activatory effect of the compounds of the present disclosure for SMRT recruitment to PPARγ protein. PPARγ-LBD (UniProt ID: P37231-2) was expressed and purified in insect system and stored at −80° C. in aliquots. Biotinylated SMRT peptide was synthesized (Biotin-[…]). 5 μL protein solution mixture consisting of 10 nM PPARγ-LBD and 2 nM Anti-His Eu (Cisbio, 61HISKLA) in assay buffer (25 mM HEPES pH7.4, 25 mM KCl, 1 mM EDTA, 0.01% BSA, 0.01% Tween-20, 1 mM TCEP) was added to 384-well plates containing duplicate 10-point dose response titration of compounds in 5 μL assay buffer (1% f.c. DMSO(v/v)). After 120 min pre-incubation at room temperature, 5 μL peptide solution mixture consisting of 50 nM Biotin-SMRT peptide and 25 nM Streptavidin-XL665 (Cisbio, 610SAXLA) added to plates. Plates were incubated for 60 min. and read in CLARIOstar Plus plate reader with Ex/Em 620 nm/[…]. Average TR-FRET ratio of high control (Wells with 10 uM control compound) was calculated as High Control (HC). Average TR-FRET ratio of low control (Wells with 1% DMSO) was calculated as Low control (LC). For one compound, top % is the max value of % Activation.
EC50 values were determined by fitting the data to the standard 4 parameters with Hill Slope using GraphPad Prism software. […] ND: No Determine.

Row | SMILES | EC50 | Emax
1 | CS(=O)(=O)c1ccc(C#N)cc1-c1cc(=O)c2c(F)c(C#Cc3ccncc3)c(F)cc2[nH]1 [Example 22, 3-(5,7-Difluoro-4-oxo-6-(pyridin-4-ylethynyl)-1,4-dihydroquinolin-2-yl)-4-(methylsulfonyl)benzonitrile] | < 100 nM | –
2 | CC(C)(O)C#Cc1c(F)cc2[nH]c(-c3cc(C#N)ccc3S(C)(=O)=O)cc(=O)c2c1F [Example 1, 3-(5,7-Difluoro-6-(3-hydroxy-3-methylbut-1-yn-1-yl)-4-oxo-1,4-dihydroquinolin-2-yl)-4-(methylsulfonyl)benzonitrile] | < 100 nM | 495%
3 | CS(=O)(=O)c1ccc(C#N)cc1-c1cc(=O)c2c(F)c(C#CCO)c(F)cc2[nH]1 [Example 3, 3-(5,7-Difluoro-6-(3-hydroxyprop-1-yn-1-yl)-4-oxo-1,4-dihydroquinolin-2-yl)-4-(methylsulfonyl)benzonitrile] | < 100 nM | 300%
4 | C[C@@H](O)C#Cc1c(F)cc2[nH]c(-c3cc(C#N)ccc3S(C)(=O)=O)cc(=O)c2c1F [Example 4, (R)-3-(5,7-Difluoro-6-(3-hydroxybut-1-yn-1-yl)-4-oxo-1,4-dihydroquinolin-2-yl)-4-(methylsulfonyl)benzonitrile] | < 100 nM | 200%
5 | CC(C)(N)C#Cc1c(F)cc2[nH]c(-c3cc(C#N)ccc3S(C)(=O)=O)cc(=O)c2c1F [Example 8, 3-(6-(3-Amino-3-methylbut-1-yn-1-yl)-5,7-difluoro-4-oxo-1,4-dihydroquinolin-2-yl)-4-(methylsulfonyl)benzonitrile] | < 100 nM | 208%
6 | CS(=O)(=O)c1ccc(C#N)cc1-c1cc(=O)c2c(F)c(OCC3CCC3)c(F)cc2[nH]1 [Example 26, 3-(6-(Cyclobutylmethoxy)-5,7-difluoro-4-oxo-1,4-dihydroquinolin-2-yl)-4-(methylsulfonyl)benzonitrile] | < 100 nM | –
7 | CS(=O)(=O)c1ccc(C#N)cc1-c1cc(=O)c2c(F)c(C#Cc3ccccc3C(F)(F)F)c(F)cc2[nH]1 [Example 44, 3-(5,7-Difluoro-4-oxo-6-((2-(trifluoromethyl)phenyl)ethynyl)-1,4-dihydroquinolin-2-yl)-4-(methylsulfonyl)benzonitrile] | < 100 nM | 286%
8 | COc1nccnc1C#Cc1c(F)cc2[nH]c(-c3cc(C#N)ccc3S(C)(=O)=O)cc(=O)c2c1F [Example 43, 3-(5,7-Difluoro-6-((3-methoxypyrazin-2-yl)ethynyl)-4-oxo-1,4-dihydroquinolin-2-yl)-4-(methylsulfonyl)benzonitrile] | < 100 nM | 237%
9 | Cc1cccc(C#Cc2c(F)cc3[nH]c(-c4cc(C#N)ccc4S(C)(=O)=O)cc(=O)c3c2F)n1 [Example 31, 3-(5,7-Difluoro-6-((6-methylpyridin-2-yl)ethynyl)-4-oxo-1,4-dihydroquinolin-2-yl)-4-(methylsulfonyl)benzonitrile] | < 100 nM | 181%
10 | Cc1cnccc1C#Cc1c(F)cc2[nH]c(-c3cc(C#N)ccc3S(C)(=O)=O)cc(=O)c2c1F [Example 28, 3-(5,7-Difluoro-6-((3-methylpyridin-4-yl)ethynyl)-4-oxo-1,4-dihydroquinolin-2-yl)-4-(methylsulfonyl)benzonitrile] | < 100 nM | 293%
11 | CS(=O)(=O)c1ccc(C#N)cc1-c1cc(=O)c2c(F)c(C#Cc3ccccc3C#N)c(F)cc2[nH]1 [Example 42, 3-(6-((2-Cyanophenyl)ethynyl)-5,7-difluoro-4-oxo-1,4-dihydroquinolin-2-yl)-4-(methylsulfonyl)benzonitrile] | < 100 nM | 231%
12 | Cn1cc(C#Cc2c(F)cc3[nH]c(-c4cc(C#N)ccc4S(C)(=O)=O)cc(=O)c3c2F)cn1 [Example 12, 3-(5,7-Difluoro-6-((1-methyl-1H-pyrazol-4-yl)ethynyl)-4-oxo-1,4-dihydroquinolin-2-yl)-4-(methylsulfonyl)benzonitrile] | < 100 nM | 181%
13 | CS(=O)(=O)c1ccc(C#N)cc1-c1cc(=O)c2c(F)c(C#Cc3ccccc3)c(F)cc2[nH]1 [Example 11, 3-(5,7-Difluoro-4-oxo-6-(phenylethynyl)-1,4-dihydroquinolin-2-yl)-4-(methylsulfonyl)benzonitrile] | < 100 nM | 435%
14 | CS(=O)(=O)c1ccc(C#N)cc1-c1cc(=O)c2c(F)c(C#CC3(O)COC3)c(F)cc2[nH]1 [Example 7, 3-(5,7-Difluoro-6-((3-hydroxyoxetan-3-yl)ethynyl)-4-oxo-1,4-dihydroquinolin-2-yl)-4-(methylsulfonyl)benzonitrile] | < 100 nM | 207%
15 | CS(=O)(=O)c1ccc(C#N)cc1-c1cc(=O)c2c(F)c(CCC3CCOCC3)c(F)cc2[nH]1 [Example 25, 3-(5,7-Difluoro-4-oxo-6-(2-(tetrahydro-2H-pyran-4-yl)ethyl)-1,4-dihydroquinolin-2-yl)-4-(methylsulfonyl)benzonitrile] | < 100 nM | –
16 | Cc1cc(C#Cc2c(F)cc3[nH]c(-c4cc(C#N)ccc4S(C)(=O)=O)cc(=O)c3c2F)ccn1 [Example 27, 3-(5,7-Difluoro-6-((2-methylpyridin-4-yl)ethynyl)-4-oxo-1,4-dihydroquinolin-2-yl)-4-(methylsulfonyl)benzonitrile] | < 100 nM | –
17 | CC(C)(F)C#Cc1c(F)cc2[nH]c(-c3cc(C#N)ccc3S(C)(=O)=O)cc(=O)c2c1F [Example 23, 3-(5,7-Difluoro-6-(3-fluoro-3-methylbut-1-yn-1-yl)-4-oxo-1,4-dihydroquinolin-2-yl)-4-(methylsulfonyl)benzonitrile] | < 100 nM | 316%
18 | CS(=O)(=O)c1ccc(C#N)cc1-c1cc(=O)c2c(F)c(C3CC3)c(F)cc2[nH]1 [Example 13, 3-(6-Cyclopropyl-5,7-difluoro-4-oxo-1,4-dihydroquinolin-2-yl)-4-(methylsulfonyl)benzonitrile] | < 100 nM | 187%
19 | CS(=O)(=O)c1ccc(C#N)cc1-c1cc(=O)c2c(F)c(C#Cc3ccccc3OC(F)F)c(F)cc2[nH]1 [Example 37, 3-(6-((2-(Difluoromethoxy)phenyl)ethynyl)-5,7-difluoro-4-oxo-1,4-dihydroquinolin-2-yl)-4-(methylsulfonyl)benzonitrile] | < 100 nM | 406%
20 | COC(C)(C)C#Cc1c(F)cc2[nH]c(-c3cc(C#N)ccc3S(C)(=O)=O)cc(=O)c2c1F [Example 50, 3-(5,7-Difluoro-6-(3-methoxy-3-methylbut-1-yn-1-yl)-4-oxo-1,4-dihydroquinolin-2-yl)-4-(methylsulfonyl)benzonitrile] | < 100 nM | 372%
21 | Cc1ccccc1C#Cc1c(F)cc2[nH]c(-c3cc(C#N)ccc3S(C)(=O)=O)cc(=O)c2c1F [Example 17, 3-(5,7-Difluoro-4-oxo-6-(o-tolylethynyl)-1,4-dihydroquinolin-2-yl)-4-(methylsulfonyl)benzonitrile] | < 100 nM | 613%
22 | Cc1ncccc1C#Cc1c(F)cc2[nH]c(-c3cc(C#N)ccc3S(C)(=O)=O)cc(=O)c2c1F [Example 29, 3-(5,7-Difluoro-6-((2-methylpyridin-3-yl)ethynyl)-4-oxo-1,4-dihydroquinolin-2-yl)-4-(methylsulfonyl)benzonitrile] | < 100 nM | 357%
